Assays:
[1] = tested on: neural precursors; assay: Kinase inhibitor library screening for sustaining neural precursor proliferation (Ki67, EdU incorporation); type: cell-based, human; settings: SA001-derived neural precursors, N2B27 without growth factors, day 7, compared to DMSO-treated cells
Method: Cells were fixed with 4% PFA for 15 min at 4° C. then permeabilized using a PBS/0.3% Triton X100 solution, 10 min at RT. Incubation with primary antibodies was performed. AlexaFluor secondary antibodies and DAPI counterstaining were applied for 1 h at room temperature. Detection was performed using a Zeiss Inverted microscope or the Arrayscan automated microscope.
A homogeneous population of neural precursors was produced after conversion of SA001 PSC line into neural cells and further amplification using EFB medium until passage 8. The stable neural precursors were seeded in 384 well-plates using Agilent BRAVO automate in N2B27 without growth factors. Six hours post-seeding, cells were treated with Enzo Life Sciences Kinase inhibitors library (BML-2832), a collection of 80 different kinase inhibitors. Another treatment was performed at day 4 and the percentage of proliferative precursors was quantified at day 7 using Ki67 and EdU incorporation. SOX2 was used as a neural marker.

[2] = tested on: neural precursors; assay: Terminal differentiation into neurons of amplified neural precursors; type: cell-based, human; settings: amplified for 5 passages, compared to EFB medium
From the text: Terminal differentiation into neurons was induced by plating neural precursors on poly-ornithin/laminin at a density of 50,000 cells/cm^2 in N2B27 medium. Medium was changed every 4 days.
We next measured the ability of neural precursors amplified using the PKA inhibitor HA1004 for 5 passages to produce neurons. This was compared to the production of neurons obtained from precursor amplified using EFB medium as a reference.

| SMILES | neural precursor self-renewal (percentage of Ki67 positive cells) [1] | ability of amplified neural precursors to produce neurons [2] |
| --- | --- | --- |
| CC1CNCCN1S(=O)(=O)c1cccc2cnccc12 (centres unmarked) [H7] | sustained neural precursor self-renewal |  |
| CNCCNS(=O)(=O)c1cccc2cnccc12 [H8] | sustained neural precursor self-renewal |  |
| NCCNS(=O)(=O)c1cccc2cnccc12 [H9] | sustained neural precursor self-renewal |  |
| Cl.N=C(N)NCCNS(=O)(=O)c1cccc2cnccc12 [HA1004, N-(2′-Guanidinoethyl)-5-isoquinolinesulfonamide.HCl] |  | did not impact on their ability to produce neurons |
| O=S(=O)(c1cccc2cnccc12)N1CCCNCC1 [HA1077] | sustained neural precursor self-renewal |  |

From patent US20160053226A1, “Method and Medium for Amplifying Neural Precursor Cells” (INSERM (INSTITUT NATIONAL DE LA SANTÉ ET DE LA RECHERCHE …, priority 2013, published 2016)
